{"source": "patent US4734280A", "about": "“Treatment or prevention of PAF Acether-induced maladies” (priority 1984, dated 1988)", "key": {"thermal-injured patients": {"tested_on": "thermal-injured patients", "assay": "Preliminary clinical trial in thermal-injured patients (open study)", "assay_type": "in vivo, human", "settings": "perfusion 5 mg per hour for six hours then 2 mg per hour for 48 hours; 13 patients, burnt surface area >50%", "procedure": "An open study has been performed on 13 thermal-injured patients (total burnt surface area >50%) treated by Ginkgolide B.\nThe Ginkgolide B was administered in a perfusion (5 mg per hour for six hours and then 2 mg per hour for the following 48 hours)."}, "Hartley guinea-pig": {"tested_on": "Hartley guinea-pig", "assay": "PAF Acether-induced bronchoconstriction in the anesthetized guinea-pig", "assay_type": "in vivo", "settings": "1 mg/kg IV", "procedure": "Method: (For details, see B. B. VARGAFTIG, J. LEFORT, F. WAL, M. CHIGNARD and M. C. MEDEIROS-Non-steroidal anti-inflammatory drugs of combined with anti-histamine and anti-serotonin agents interfere with the bronchial and platelet effects of PAF Acether-Enr. J. Pharm. (1982) 82 121-130). Male Hartley guinea-pig (400-500 g) were anesthetized with urethane 2 g/kg Ip., tracheotomised and ventilated by mean of a respiratory pump: 70-80 strokes mn, stroke volume 5 ml, a pneumothorax was done to abolish spontaneous respiration. The right jugular vein was catherized and used for injections.\nThe initial resistance was kept constant at 10 cm H2 O pressure according to the method of Konzett and Rossler and the overflowed airway was measured with a bronchospasm transducer UGO BASILE connected to a UGO BASILE recorder \"GEMINI\". Bronchial sensitivity of the animal was checked with acetylcholine (10-40 ng kg^-1 IV) and after constant response was obtained, there were injected, IV, first the propylene glycol and, five minutes later, 60 ng/kg of PAF Acether, which gave the control bronchoconstriction expressed as % of maximal bronchoconstriction given by clamping off the trachea. 40 minutes later, the tested compounds were administered by IV injection and, 5 minutes later, 60 ng/kg of PAF Acether by the same route. This experimentation was conducted on three batches of each 10 animals: first batch for Ginkgolide A, second one for Ginkgolide B and last one for Ginkgolide C, all at the 1 mg/kg dose. The figures of the following table are the average values for the 10 animals of each batch."}, "[1]": {"tested_on": "rabbit plasma-rich platelets (PRP)", "assay": "Aggregation induced by other known aggregants (ADP, thrombine, calcium ionophore A 23187, collagen, adrenaline)", "assay_type": "cell-based", "settings": "calcium ionophore A 23187, collagen and adrenaline"}, "New-Zealand rabbits": {"tested_on": "New-Zealand rabbits", "assay": "PAF Acether-induced shock in the rabbit", "assay_type": "in vivo", "settings": "for Extravasation (O.D.): 2 mg/kg IV perfusion, 30 mn, optical density at 590 nm, average of 10 animals", "procedure": "Treatment: Tested compounds (Gingkolides A, B and C) or vehicle were perfused in the ear vein in 45 ml NaCl 0.9% for 1 hour before PAF Acether injection. Vehicle consisted of 1.5 ml of propylene glycol completed to 45 ml by isotonic NaCl buffer; Ginkgolides were administered at the dose of 2 mg/kg IV; the figures reported in the following table are the average values of the 10 animals of each batch."}, "rat portal vein": {"tested_on": "rat portal vein", "assay": "Isolated rat portal vein, PAF Acether-induced increase of basal tonus", "procedure": "In vitro experiments were performed on isolated longitudinal strips of rat portal vein maintained in Krebs-Henseleit medium at 37° C. under an oxygen-rich gaseous circulation (95% O2 -5% CO2).\nThe preparations were allowed to equilibrate for 1 hour under isotonic conditions with 500 mg tension and rinced every 15 minutes. When myogenic activity was established, PAF Acether (10^-7 M) is added. It induced an increase of the basal tonus and frequency of the myogenic activity."}, "human platelets": {"tested_on": "human platelets", "assay": "Ex vivo PAF Acether-induced PA in man after IV administration", "settings": "IV 25 mg, PAF Acether 100 nM", "procedure": "[…] DMSO).\nThe same protocol described hereinabove for rabbit was used in man with only one dose of each Ginkgolide (IV 25 mg) and two blood takes (at 0.5 h and 1 h)."}, "PAF-Acether receptor": {"target": "T1, PAF-Acether receptor (Oryctolagus cuniculus, UniProt G1TEI7)", "T1 construct": "using a rabbit membrane platelet preparation; from tissue; host or cells: rabbit platelets (membrane preparation)", "T1 sequence (G1TEI7 1-342)": "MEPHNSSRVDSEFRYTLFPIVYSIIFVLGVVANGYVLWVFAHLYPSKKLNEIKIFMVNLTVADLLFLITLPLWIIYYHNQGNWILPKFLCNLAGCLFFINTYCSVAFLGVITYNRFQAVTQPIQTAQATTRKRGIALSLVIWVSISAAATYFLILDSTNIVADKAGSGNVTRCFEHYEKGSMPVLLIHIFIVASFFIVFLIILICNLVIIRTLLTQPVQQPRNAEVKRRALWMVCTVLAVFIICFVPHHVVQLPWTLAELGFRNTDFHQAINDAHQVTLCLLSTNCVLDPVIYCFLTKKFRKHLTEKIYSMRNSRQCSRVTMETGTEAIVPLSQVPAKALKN", "assay": "Competition with 3H-PAF Acether binding, rabbit membrane platelet preparation", "quoted_text": "The competition of the alternative binding of either ^3 H-PAF Acether or one of the Ginkgolides was evidenced by radioactive determinations using a rabbit membrane platelet preparation. (100% control=^3 H-PAF Acether alone)."}, "human PRP": {"tested_on": "human PRP", "assay": "Inhibition of PAF Acether-induced PA, human PRP in vitro", "assay_type": "cell-based", "settings": "PAF Acether 100 nM, read-out: IC Doses (PAF Acether-induced PA, human PRP)", "procedure": "The Inhibition of PAF Acether-induced PA has been studied on rabbit plasma-rich platelets (PRP). Two doses of PAF Acether were used (2.5 nM and 5 nM). The tested compound was added to the medium 3 minutes before PAF Acether and aggregation was followed by monitoring changes in electrical impedance (Whole-Blood aggregometer-chrono-Log); kadsurenone was simultaneously tested as reference compound and the IC50 molar doses of Ginkgolides A, B, C and M and of kadsurenone on PAF Acether-induced rabbit PA (PRP) have been calculated.\nThe inhibition of PAF Acether-induced PA has been studied on human PRP. The same protocol was used as for rabbit hereinabove."}, "human washed platelets": {"tested_on": "human washed platelets", "assay": "Inhibition of PAF Acether-induced PA, human washed platelets", "assay_type": "cell-based", "settings": "Platelet, average values of 5 assays", "from_the_text": "The inhibition of PAF Acether-induced PA was also experimented using human washed platelets on Ginkgolides A, B, and C.\nBest figure for IC50 was obtained with Ginkgolide B (GK B) (average values of 5 assays) with 2.5 10^-5 M."}, "[2]": {"settings": "2 mg/kg IV, PAF Acether 2 and 4 nmol/kg, 10 animals per batch"}}, "note": "pIC50: −log10 of the molar value.", "data": [{"smiles": "CC1C(=O)OC2C(O)C34C5CC(C(C)(C)C)C36C(OC(=O)C6O)OC4(C(=O)O5)C12O", "note": "(stereo not shown) [Ginkgolide B]", "values": [{"measurement": "clinical outcome in thermal-injured patients", "setting": "thermal-injured patients", "result": "faster recovery (decreased oedema, decreased plasma leakage and improvement of clinical outcome)"}, {"measurement": "% of bronchoconstriction", "setting": "Hartley guinea-pig; 5 minutes before PAF Acether 60 ng/kg IV, % of maximal bronchoconstriction, average of 10 animals", "result": 6.2, "unit": "%"}, {"measurement": "% of inhibition (bronchoconstriction)", "setting": "Hartley guinea-pig; vs solvent in the same batch", "result": 92.3, "unit": "%"}, {"measurement": "effect against aggregation induced by other known aggregants", "setting": "[1]", "result": "totally ineffective"}, {"measurement": "Extravasation (O.D.)", "setting": "New-Zealand rabbits; PAF Acether 2 nmol/kg", "result": 0.827, "unit": "O.D."}, {"measurement": "Extravasation (O.D.)", "setting": "New-Zealand rabbits; PAF Acether 4 nmol/kg", "result": 0.880, "unit": "O.D."}, {"measurement": "Behaviour: behavioural modifications", "setting": "New-Zealand rabbits; [2]", "result": "No behavioural"}, {"measurement": "Behaviour: deaths", "setting": "New-Zealand rabbits; [2]", "result": "No death"}, {"measurement": "IC50", "setting": "rat portal vein; Rattus norvegicus, PAF Acether 10^-7 M, added 30 minutes before PAF Acether, read-out: IC50 (antagonism of PAF Acether-induced increase of the basal tonus)", "result": 6.8, "unit": "µg/mL"}, {"measurement": "effect on the myogenic activity", "setting": "rat portal vein; isolated rat portal vein", "result": "without effect"}, {"measurement": "% of aggregation with respect to control", "setting": "human platelets; blood take at 0.5 h", "result": 0, "unit": "%"}, {"measurement": "% of aggregation with respect to control", "setting": "human platelets; blood take at 1.0 h", "result": 3.4, "unit": "%"}, {"measurement": "pIC50", "setting": "PAF-Acether receptor; rabbit membrane platelet preparation", "result": 6.24}, {"measurement": "inhibition at 1 µM", "setting": "PAF-Acether receptor; read-out: reduction of 3H-PAF Acether binding", "result": 94, "unit": "%"}, {"measurement": "pIC50", "setting": "human PRP", "result": 4.25}, {"measurement": "pIC50", "setting": "human washed platelets", "result": 4.60}]}]}
